Results reported in ChEMBL document CHEMBL5620354, “Development of isoselenazolium chlorides as selective pyruvate kinase isoform M2 inhibitors” (Eur J Med Chem, 2023).
Active and inactive are the calls of the source. The rule behind the calls is not given here.

Experiments:
[1] = tested on: MCF7; assay: cells; settings: Homo sapiens, MCF7, 48 h
Description: Cytotoxicity against human MCF7 cells assessed as inhibition of cell growth incubated for 48 hrs by MTT assay

[2] = tested on: HCC1937; assay: Cytotoxicity against human HCC1937 cells assessed as inhibition of cell growth incubated for 48 hrs by MTT assay; assay type: functional, cell-based; settings: HCC1937, 48 h
[3] = tested on: 4T1; assay: Induction of ROS production in mouse 4T1 cells assessed as decrease in NADH level at 1 uM incubated for 20 mins by fluorescence cell counter analysis; assay type: functional; set-up: scale not given: the % may be the effect or the level left
[4] = tested on: HCC1937; assay: Induction of mitochondrial respiration in human HCC1937 cells assessed as increase in oxygen consumption rate at 1 uM in presence of OXPHOS state by high-resolution fluorespirometry analysis; assay type: functional, cell-based
[5] = Cytotoxicity against rat H9c2 cells assessed as inhibition of cell growth incubated for 48 hrs by MTT assay; assay type: toxicity, cell-based
[6] = tested on: 4T1; assay: Induction of mitochondrial respiration in mouse 4T1 cells assessed as increase in oxygen consumption rate at 1 uM in presence of OXPHOS state by high-resolution fluorespirometry analysis; assay type: functional, cell-based
[7] = tested on: H9c2; assay: Induction of ROS production in rat H9c2 cells assessed as decrease in NAD+/NADH ratio at 1 uM incubated for 20 mins by fluorescence cell counter analysis; assay type: functional, cell-based
[8] = target: T1, Pyruvate kinase PKM (Homo sapiens, UniProt P14618); assay: Inhibition of PKM2 (unknown origin) by ITC analysis
Target sequence in this assay (P14618 whole entry): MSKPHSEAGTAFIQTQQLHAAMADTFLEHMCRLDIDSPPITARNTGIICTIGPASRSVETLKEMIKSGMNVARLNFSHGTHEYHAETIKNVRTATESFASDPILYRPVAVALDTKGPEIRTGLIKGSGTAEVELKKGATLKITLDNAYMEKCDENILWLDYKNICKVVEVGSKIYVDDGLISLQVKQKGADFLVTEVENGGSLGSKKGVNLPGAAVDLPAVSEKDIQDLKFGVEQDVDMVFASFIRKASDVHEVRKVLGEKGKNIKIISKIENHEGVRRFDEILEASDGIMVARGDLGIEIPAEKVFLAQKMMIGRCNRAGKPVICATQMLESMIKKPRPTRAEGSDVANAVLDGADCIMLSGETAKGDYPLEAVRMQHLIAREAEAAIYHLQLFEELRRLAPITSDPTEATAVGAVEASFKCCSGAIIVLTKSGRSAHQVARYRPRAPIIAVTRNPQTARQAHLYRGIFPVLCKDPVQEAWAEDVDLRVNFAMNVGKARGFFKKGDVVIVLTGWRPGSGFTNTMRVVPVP

[9] = target: Pyruvate kinase PKLR (Homo sapiens) (UniProt P30613); assay: Inhibition of PKR (unknown origin) at 1 uM relative to control
Sequence of Pyruvate kinase PKLR (Homo sapiens) (P30613 whole entry, looked up): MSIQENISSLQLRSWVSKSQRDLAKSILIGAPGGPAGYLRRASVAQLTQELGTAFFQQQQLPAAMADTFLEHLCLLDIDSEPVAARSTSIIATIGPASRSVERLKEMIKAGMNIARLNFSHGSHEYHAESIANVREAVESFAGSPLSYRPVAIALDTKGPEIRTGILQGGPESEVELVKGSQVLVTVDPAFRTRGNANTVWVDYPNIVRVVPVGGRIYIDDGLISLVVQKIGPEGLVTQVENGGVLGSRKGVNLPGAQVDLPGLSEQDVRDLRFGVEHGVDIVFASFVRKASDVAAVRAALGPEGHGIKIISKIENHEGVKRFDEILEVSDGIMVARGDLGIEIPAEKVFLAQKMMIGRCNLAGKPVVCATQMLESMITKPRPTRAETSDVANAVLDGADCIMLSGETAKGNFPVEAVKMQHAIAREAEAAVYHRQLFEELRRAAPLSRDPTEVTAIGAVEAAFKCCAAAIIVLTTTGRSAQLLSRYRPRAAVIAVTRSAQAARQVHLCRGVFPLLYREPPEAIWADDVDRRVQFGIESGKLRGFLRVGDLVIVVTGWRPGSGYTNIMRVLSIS

[10] = tested on: HCC1937; assay: Induction of ROS production in human HCC1937 cells at 1 uM in presence of pyruvate and malate by high-resolution fluorespirometry analysis; assay type: functional, cell-based
[11] = tested on: Jurkat; assay: Induction of mitochondrial respiration in human Jurkat cells assessed as increase in oxygen consumption rate at 1 uM in presence of LEAK state by high-resolution fluorespirometry analysis; assay type: functional, cell-based
[12] = species on record: Oryctolagus cuniculus; assay: Inhibition of rabbit LDH at 1 uM relative to control
[13] = tested on: H9c2; assay: Induction of ROS production in rat H9c2 cells assessed as decrease in NAD+ level at 1 uM incubated for 20 mins by fluorescence cell counter analysis; assay type: functional, cell-based
[14] = Downregulation of PKM2 mRNA expression in human HCC1937 cells assessed as fold change at 0.25 uM incubated for 24 hrs by qPCR analysis; assay type: functional
[15] = target: T1, Pyruvate kinase PKM; assay: Inhibition of PKM2 (unknown origin) assessed as increase in tetramer ratio by analytical size-exclusion chromatography; settings: dose 5.0 µM
Target sequence in this assay (P14618 2-531 limits assumed): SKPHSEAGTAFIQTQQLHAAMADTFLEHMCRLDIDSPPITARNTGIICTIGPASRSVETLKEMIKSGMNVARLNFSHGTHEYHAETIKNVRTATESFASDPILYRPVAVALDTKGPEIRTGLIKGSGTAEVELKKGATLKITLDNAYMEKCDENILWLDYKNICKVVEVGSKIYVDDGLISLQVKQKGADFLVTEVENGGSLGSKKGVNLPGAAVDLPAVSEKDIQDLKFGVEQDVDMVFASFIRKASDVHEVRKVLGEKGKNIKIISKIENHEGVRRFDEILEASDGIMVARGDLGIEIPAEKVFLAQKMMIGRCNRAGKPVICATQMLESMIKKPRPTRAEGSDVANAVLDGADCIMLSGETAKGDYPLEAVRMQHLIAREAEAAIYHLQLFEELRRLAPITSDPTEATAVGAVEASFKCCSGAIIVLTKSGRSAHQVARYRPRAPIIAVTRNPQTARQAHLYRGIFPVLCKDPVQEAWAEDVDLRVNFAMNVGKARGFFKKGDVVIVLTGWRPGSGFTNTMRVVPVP

[16] = tested on: HCC1937; assay: Induction of mitochondrial respiration in human HCC1937 cells assessed as increase in oxygen consumption rate at 1 uM in presence of LEAK state by high-resolution fluorespirometry analysis; assay type: functional, cell-based
[17] = tested on: H9c2; assay: Induction of ROS production in rat H9c2 cells assessed as decrease in NADH level at 1 uM incubated for 20 mins by fluorescence cell counter analysis; assay type: functional, cell-based
[18] = tested on: 4T1; assay: Induction of ROS production in mouse 4T1 cells assessed as decrease in NAD+/NADH ratio at 1 uM incubated for 20 mins by fluorescence cell counter analysis; assay type: functional, cell-based
[19] = target: T1, Pyruvate kinase PKM; assay: Inhibition of N-terminal his8-tagged PKM2 (unknown origin)
Target sequence in this assay (P14618 whole entry): as the sequence (P14618 whole entry) above

[20] = tested on: MDA-MB-231; assay: Cytotoxicity against human MDA-MB-231 cells assessed as inhibition of cell growth incubated for 48 hrs by MTT assay; assay type: functional, cell-based; settings: MDA-MB-231, 48 h
[21] = tested on: 4T1; assay: Induction of mitochondrial respiration in mouse 4T1 cells assessed as increase in oxygen consumption rate at 1 uM in presence of LEAK state by high-resolution fluorespirometry analysis; assay type: functional, cell-based
[22] = tested on: 4T1; assay: Cytotoxicity against mouse 4T1 cells assessed as inhibition of cell growth incubated for 48 hrs by MTT assay; assay type: functional, cell-based; settings: 4T1, 48 h, read-out: IC50
[23] = tested on: Jurkat; assay: Induction of mitochondrial respiration in human Jurkat cells assessed as increase in oxygen consumption rate at 1 uM in presence of OXPHOS state by high-resolution fluorespirometry analysis; assay type: functional, cell-based
[24] = tested on: Jurkat; assay: Cytotoxicity against human Jurkat cells assessed as inhibition of cell growth incubated for 48 hrs by MTT assay; assay type: functional, cell-based
[25] = tested on: HCC1937; assay: Downregulation of PKM1 mRNA expression in human HCC1937 cells at 0.25 to 5 uM incubated for 24 hrs by qPCR analysis; assay type: functional, cell-based; settings: dose 0.25-5 µM
[26] = tested on: 4T1; assay: Induction of ROS production in mouse 4T1 cells at 1 uM in presence of pyruvate and malate by high-resolution fluorespirometry analysis; assay type: functional, cell-based
[27] = tested on: MCF7; assay: Induction of mitochondrial respiration in human MCF7 cells assessed as increase in oxygen consumption rate at 1 uM in presence of LEAK state by high-resolution fluorespirometry analysis; assay type: functional, cell-based
[28] = tested on: MCF7; assay: Induction of mitochondrial respiration in human MCF7 cells assessed as increase in oxygen consumption rate at 1 uM in presence of OXPHOS state by high-resolution fluorespirometry analysis; assay type: functional, cell-based
[29] = Binding affinity to Sprague-Dawley rat liver Cardiolipin incubated for 10 mins by microplate reader analysis; assay type: tissue-based
[30] = tested on: MCF7; assay: Induction of ROS production in human MCF7 cells at 1 uM in presence of pyruvate and malate by high-resolution fluorespirometry analysis; assay type: functional, cell-based
[31] = tested on: 4T1; assay: Downregulation of PKM2 mRNA expression in mouse 4T1 cells at 0.25 to 0.5 uM incubated for 24 hrs by qPCR analysis; assay type: functional, cell-based; settings: dose 0.25-0.5 µM
[32] = tested on: Jurkat; assay: Induction of ROS production in human Jurkat cells at 1 uM in presence of pyruvate and malate by high-resolution fluorespirometry analysis; assay type: functional, cell-based
[33] = target: T1, Pyruvate kinase PKM; assay: Inhibition of PKM1 (unknown origin); set-up: concentration or dose not given beside the values; settings: concentration not given here
Target sequence in this assay (P14618 2-531 limits assumed): as the sequence (P14618 2-531 limits assumed) above

[34] = Downregulation of PKM2 mRNA expression in human HCC1937 cells assessed as fold change at 0.5 uM incubated for 24 hrs by qPCR analysis; assay type: functional
[35] = tested on: A549; assay: cells; settings: Homo sapiens, A549, 48 h
Description: Cytotoxicity against human A549 cells assessed as inhibition of cell growth incubated for 48 hrs by MTT assay

[36] = tested on: 4T1; assay: Induction of ROS production in mouse 4T1 cells assessed as decrease in NAD+ level at 1 uM incubated for 20 mins by fluorescence cell counter analysis; assay type: functional; set-up: scale not given: the % may be the effect or the level left
[37] = target: T1, Pyruvate kinase PKM; assay: Inhibition of N-terminal his8-tagged PKM2 (unknown origin) in presence of FBP by Michaelis-menten analysis
Target sequence in this assay (P14618 whole entry): as the sequence (P14618 whole entry) above

COC(=O)c1cc[n+]2[se]c(C3(O)CCCCC3)c(Br)c2c1.[Cl-]
IC50 [1]: 1.16 µM
IC50 [2]: 0.33 µM
Activity [3]: 57.4%
Activity [4]: Active
IC50 at 48 h [5]: 2.46 µM
Activity [6]: Active
Activity [7]: inactive
IC50 [8]: 0.25 µM
inhibition [9]: 21%
inhibition ([9]; tested as the 2H-labelled form): 16%
Activity [10]: Active
Activity [11]: Active
inhibition [12]: 10%
inhibition ([12]; tested as the 2H-labelled form): 13%
Activity [13]: inactive
fold change (FC) [14]: 4
inhibition [15]: Dose-Dependent Effect
Activity [16]: Active
Activity [17]: inactive
Activity [18]: inactive
IC50 [19]: 0.35 µM
IC50 [20]: 0.51 µM
Activity [21]: Active
IC50 [22]: 0.32 µM
Activity [23]: Active
IC50 [24]: 0.44 µM
Activity [25]: inactive
Activity [26]: Active
Activity [27]: Active
Activity [28]: Active
EC50 [29]: 3490 µM
Activity [30]: Active
Activity [31]: Active
Activity [32]: Active
inhibition [33]: 13%
inhibition ([33]; tested as the 2H-labelled form): 10%
fold change (FC) [34]: 20
IC50 [35]: 1.3 µM
Activity [36]: 42.8%
IC50 [37]: 0.477 µM
